In US20050106111A1, “Compositions and methods for reducing dental plaque” (Aphios Corporation, priority 2003, published 2005):
Converted amounts (≈) assume the structure as drawn. Where two headings read alike, the source gives them in different places. Blank lines part the entries; values can stand above or below the molecule they belong to.

Columns and labels:
mice = conditions: cited from earlier work
Actinomyces viscosus [1] = assay: Minimum inhibitory concentration (MIC) against A. viscosus; format: cell-based
From the text: (§1) Minimum inhibitory concentrations (MIC) can be determined to identify the minimum concentration of a composition needed to inhibit the growth of the target organism using methods well known to those skilled in the art. Minimum bactericidal concentrations (MBC) can be determined to identify the minimum concentration of a composition needed to kill the target organism using methods well known to those skilled in the art. The MBC can be determined from the same plates set up for the MIC.
(§2) Cultures of Actinomyces viscosus, Streptococcus mutans, and Actinobacillus actinomycete-mcomitans were obtained from the American Type Culture Collection (ATCC) following instructions provided by ATCC. Frozen stocks of each bacteria were prepared by adding 10% (v/v) volume of glycerol to an overnight culture; aliquots of the resulting suspension were then frozen at −80° C.
(§3) Minimum inhibitory concentrations (MIC) were determined to identify the minimum concentration of a compound needed to inhibit the growth of the target organism. Minimum bactericidal concentrations (MBC) were determined to identify the minimum concentration of a compound needed to kill the target organism. The MBC was determined from the same plates set up for the MIC.

A. viscosus = assay: Biofilm assay, bactericidal activity against A. viscosus in a biofilm on a solid support; format: cell-based; conditions: 125 μg/mL, 1 hour incubation in test agent
Experimental: (§4) A biofilm assay can be conducted to assess the bactericidal activity of the target compositions when the challenge organisms are contained within a biofilm. The semi-purified Vibrio gazogenes extract can be assayed for bactericidal activity against orally-relevant microbes contained in a biofilm grown on a solid support.
as §4, with “was” for “can be”, “access” for “assess”, “compounds” for “compositions”

Actinomyces viscosus [2] = assay: Minimum bactericidal concentration (MBC) against A. viscosus; format: cell-based
From the text: as §1, §2, §3

A. actinomycetemcomitans [3] = assay: Minimum inhibitory concentration (MIC) against A. actinomycetemcomitans; format: cell-based; conditions: Aggregatibacter actinomycetemcomitans
From the text: as §1, §2, §3

Streptococcus mutans [4] = assay: Minimum bactericidal concentration (MBC) against S. mutans; format: cell-based
From the text: as §1, §2, §3

Streptococcus mutans [5] = assay: Minimum inhibitory concentration (MIC) against S. mutans; format: cell-based
From the text: as §1, §2, §3

A. actinomycetemcomitans [6] = assay: Biofilm assay, bactericidal activity against A. actinomycetemcomitans in a biofilm on a solid support; format: cell-based; conditions: 125 μg/mL, 1 hour incubation in test agent
Experimental: as §4
as §4, with “was” for “can be”, “access” for “assess”, “compounds” for “compositions”

A. actinomycetemcomitans [7] = assay: Minimum bactericidal concentration (MBC) against A. actinomycetemcomitans; format: cell-based; conditions: Aggregatibacter actinomycetemcomitans
From the text: as §1, §2, §3

S. mutans = assay: Biofilm assay, bactericidal activity against S. mutans in a biofilm on a solid support; format: cell-based; conditions: 125 μg/mL, 1 hour incubation in test agent
Experimental: as §4
as §4, with “was” for “can be”, “access” for “assess”, “compounds” for “compositions”

[8] = clinical trials; cited from earlier work

Molecule: magnesidin
LD50 (mice; intraperitoneal): 50 mg/kg
LD50 (mice; oral or subcutaneous): 1,000 mg/kg

Molecule: Oc1cc(Cl)ccc1Oc1ccc(Cl)cc1Cl [Triclosan, 5-chloro-2-(2,4-dichlorophenoxy)-phenol]
MIC (Actinomyces viscosus [1]): 3.9 µg/mL (≈ 13.5 µM)
Microbial Biofilm Control (bacteria count after treatment) (A. viscosus): 6.0 × 10^5
MBC (Actinomyces viscosus [2]): 3.9 µg/mL (≈ 13.5 µM)
MIC (A. actinomycetemcomitans [3]): < 0.75 µg/mL
MBC (Streptococcus mutans [4]): 15.6 µg/mL (≈ 53.9 µM)
MIC (Streptococcus mutans [5]): 7.8 µg/mL (≈ 26.9 µM)
Microbial Biofilm Control (bacteria count after treatment) (A. actinomycetemcomitans [6]): 2.1 × 10^6
MBC (A. actinomycetemcomitans [7]): < 0.75 µg/mL
Microbial Biofilm Control (bacteria count after treatment) (S. mutans): 0

Molecule: N=C(NCCCCCCNC(=N)NC(=N)Nc1ccc(Cl)cc1)NC(=N)Nc1ccc(Cl)cc1.O=C(O)[C@H](O)[C@@H](O)[C@H](O)[C@H](O)CO.O=C(O)[C@H](O)[C@@H](O)[C@H](O)[C@H](O)CO [CHG, chlorhexidine digluconate]
reduced gingivitis [8]: 50-80%

MIC (Actinomyces viscosus [1]; A. viscosus, read-out: MIC): 3.9 µg/mL (≈ 7.72 µM)
MIC (A. actinomycetemcomitans [3]; A. actinomycetemcomitans, read-out: MIC): 3.9 µg/mL (≈ 7.72 µM)
MIC (Streptococcus mutans [5]; S. mutans, read-out: MIC): 1.95 µg/mL (≈ 3.86 µM)
Molecule: [H]/N=C(\N/C(=N/[H])NCCCCCCNC(=N)NC(=N)Nc1ccc(Cl)cc1)Nc1ccc(Cl)cc1 [Chlorhexidine, chlorhexidine]
MBC (Actinomyces viscosus [2]; A. viscosus, read-out: MBC): 7.8 µg/mL (≈ 15.4 µM)
MBC (Streptococcus mutans [4]; S. mutans, read-out: MBC): 1.95 µg/mL (≈ 3.86 µM)
MBC (A. actinomycetemcomitans [7]; A. actinomycetemcomitans, read-out: MBC): 3.9 µg/mL (≈ 7.72 µM)
